The values below come from paper PMC9016803, “Mitochondria-targeted half-sandwich iridium(III)-Cp*-arylimidazophenanthroline complexes as antiproliferative and bioimaging agents against triple negative breast cancer cells MDA-MB-468” (RSC Advances, 2022).

pIC50: −log10 of the molar value.

The subject of series [1] is MDA-MB-468 cells. Description: Mitochondrial membrane potential, JC-1 staining, flow cytometry. Type of series: cell-based. The conditions noted are these: positive control. The method, then:
The cells treated with the mitochondrial uncoupler CCCP (carbonyl cyanide m-chlorophenylhydrazone), which mediates the dissipation of mitochondrial membrane potential, served as positive control for the detection of mitochondrial dysfunction. […] Unstained control represented in Fig. 10A has been used for gating purposes. […]
(Flow cytometry measures light scatter and fluorescence of single cells or particles in a stream.)

For series [2], the system named is MDA-MB-468 cells. Put plainly: ROS generation, DCFDA staining. Type of series: cell-based. The conditions noted are these: positive control. The method, then: Our results indicated a dose dependent increase in ROS production in the MDA-MB-468 cells treated with IrL1 concentrations 1 μM and 3 μM. The extent of ROS production is indicated by the 2′,7′-dichlorofluorescein (DCF) formed by the deacetylation and subsequent oxidation of 2′,7′-dichlorofluorescin diacetate (DCFDA) through cellular esterases and ROS. […] ROS production was absent in untreated control. However, in the positive control, treated with H2O2, ROS production was high which is ∼99% (Fig. 11).
Colocalization study and ROS generation studies were performed using live cell lines in their log phase.

Another series is described as follows: Solubility study. Type of series: physicochemical. As to conditions: DMSO-10% DMEM medium (1 : 99 v/v, comparable to cell media). The method, then:
(§1) Both hydrophilicity and lipophilicity studies were performed to determine the tumour-inhibiting potential of the metal complexes. These complexes were highly soluble in DMSO and moderately soluble in H2O, MeOH, EtOH and CH3CN. […] The lipophilicity of these complexes was determined by performing an n-octanol/water partition coefficient (log Po/w, where Po/w = the octanol/water partition coefficient) study using the shake flask method (Table 1).[24] The experimental log Po/w values of these complexes were determined to be in the range of 0.27–0.34 (Table 1). […] This change in the electrolytic behaviour of the complexes from 1 : 1 to 1 : 2 can be attributed to the dissociation of the Ir–Cl bond and subsequent aquation of the complexes.

Series [3] in a line: n-Octanol/water partition coefficient, shake flask method. The class given is physicochemical. The method, then: as §1, with “the complexes. […]” for “the complexes.”
n-Octanol–water partition coefficient (log P o/w)9
The log Po/w of the iridium complexes were adhering to shake flask method using the previously published procedure. A known amount of each complex (IrL1-IrL5) was suspended in water (pre-saturated with n-octanol) and shaken for 48 h on an orbital shaker.
To allow the phase separation, the solution was centrifuged for 10 min at 3000 rpm. To obtain the partition coefficient, different ratios (0.5: 1, 1: 1, and 2: 1) of the saturated solutions were shaken with pre-saturated n-octanol for 20 min on an orbital shaker and followed the same procedure. Aliquots of the aqueous and octanol layers were pipetted out separately and the absorbances were measured with UV-Vis spectrophotometer using proper dilution. Each set was performed in triplicate, concentration of the substances in each layer was calculated using the respective molar extinction coefficients and the partition coefficient (log P o/w) values were obtained from the ratio.

Series [4] has as its system MDA-MB-468 cells. Description: MTT in vitro cytotoxicity assay, triple negative breast cancer cells. The conditions noted are these: MDA-MB-468, MTT, 48 h. The class given is cell-based. The method, then:
The in vitro cytotoxicity of complexes IrL1–IrL5 and cisplatin were investigated using the typical 3-(4,5-dimethylthiazol-2-yl)-2,5-diphenyltetrazolium bromide (MTT) assay protocol against a panel of triple negative cancer cell line MDA-MB-468. The cells were initially incubated with the all test compounds at concentrations ranging from 0.5–50 μM for 48 h in vitro.
Cytotoxicity study of all the synthesized compounds against triple negative breast cancer cells MDA-MB-468 and immortalized human keratinocyte cell line HaCaT were done with a drug incubation period of 48 h by following standard procedure that were mentioned in ESI. ^† Preliminary studies were done to understand the mode of action of the complex to induce cytotoxicity using flow cytometric methods.
For doing the cell culture the cells were retained in DMEM media (Gibco), added with 10% fetal bovine serum (Himedia, India), 1% penicillin and streptomycin and 1% of Glutmax (Gibco, Thermo Scientific, USA) at 37°C in 5% CO2. When the cells attained 70%-80% confluency they were trypsinized using 0.25% trypsin-EDTA (Thermo Fisher Scientific, […]
In vitro cytotoxicity study was measured by standard MTT assay protocol.1 First the prepared complexes (IrL1-IrL5) were dissolved in 0.1% DMSO followed by dilution with DMEM medium. One cancer cell lines i.e. triple negative breast cancer cells (MDA-MB-468) and one normal cell line i.e. immortalized human keratinocyte cell line (HaCaT) were used for this assay. Approximately 1×10^4 cells per well were cultured in 100 μl of a growth medium in 96-well plates and then incubated under 5% CO2 atmosphere at 37°C temperature. Then the incubated cells were treated with different concentrations of the complexes in the volume of […]. The cisplatin was taken as standard positive control for this experiment. The Cells which were in the control wells, also engaged the same volume of medium containing 0.1% DMSO. After 48 h, the medium was superfluous and cell cultures were again incubated with 100 μL of MTT reagent (1 mg/ml) for 5 h at 37 °C. Then the resultant suspension was kept on micro vibrator for 10 min and the absorbance was recorded at λ = 570 nm in ELISA plate reader. The experiment was also performed in triplicate. The data were represented as the growth inhibition percentage i.e. % growth inhibition = 100 − [(AD × 100)/AB], where AD, measured absorbance in wells which contain samples and AB, measured absorbance for blank wells (cells with a medium and a vehicle). […]

As to `N#CC(C#N)=NNc1cccc(Cl)c1` [CCCP, carbonyl cyanide m-chlorophenylhydrazone, reference compound], in the series on MDA-MB-468 cells [1], the “cells retaining healthy mitochondria (JC-1 aggregates)” value is recorded as roughly 20% and the “cells with damaged mitochondria (JC-1 monomers)” value is roughly 79%.
As for `OO` [H2O2, reference compound], the ROS production with MDA-MB-468 cells [2] is on record as roughly 99%.
For the molecule “[Iridium(III)-Cp*-2-((3aR,7aR)-3a,7a-dihydro-1H-indol-3-yl)-1H-imidazo[4,5-f][1,10]phenanthroline]PF6 [IrL4]”, the Solubility (in general, how much of the substance goes into solution per volume) in “Solubility study” is 900 µM. Besides, the “log P (n-octanol/water partition coefficient)” value in series [3] is on record as 0.02 ± 0.05. In addition, the pIC50 (usually the negative decadic logarithm of the IC50, by convention in mol/L) in the series on MDA-MB-468 cells [4] is 5.28.
“[Iridium(III)-Cp*-2-((3aR,7aR)-3a,7a-dihydrobenzo[b]thiophen-2-yl)-1H-imidazo[4,5-f][1,10]phenanthroline]PF6 [IrL5]” came in with a Solubility in “Solubility study” of 700 µM. Besides, in series [3], the “log P (n-octanol/water partition coefficient)” value is reported as 0.29 ± 0.08. In the series with MDA-MB-468 cells [4], this molecule had a pIC50 of 5.36.
“[Iridium(III)-Cp*-2-(anthracen-1-yl)-1H-imidazo[4,5-f][1,10]phenanthroline]PF6 [IrL2]” showed a Solubility in “Solubility study” of 600 µM. Further, the “log P (n-octanol/water partition coefficient)” value in series [3] turned out to be 0.34 ± 0.07. In the series on MDA-MB-468 cells [4], this molecule gave a pIC50 of 4.69.
In the case of “[Iridium(III)-Cp*-3-(1H-imidazo[4,5-f][1,10]phenanthrolin-2-yl)-4H-chromen-4-one]PF6 [IrL3]”, the Solubility in the series “Solubility study” came out at 1200 µM. The “log P (n-octanol/water partition coefficient)” value in series [3] is −0.23 ± 0.2. For the same molecule, the pIC50 in the series on MDA-MB-468 cells [4] was 4.69.
